Test results: the METLIN SMRT retention time set (Domingo-Almenara et al. 2019)

Experiment: gradient 5% acetonitrile 3 min, to 50% in 2 min, to 85% in 15 min, held 3 min, 100 µL/min
Conditions: column: Zorbax Extend-C18 2.1 x 50 mm; eluents: water / acetonitrile, 0.1% formic acid
Procedure, shortened: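 Standards, all pure, were combined into mixtures of ~100 molecules and run at 100 μL/min on a Zorbax Extend-C18 column (2.1 × 50 mm, 1.8 μm) with water and acetonitrile, each containing 0.1% formic acid. A coupled quadrupole time-of-flight mass spectrometer operated in positive and negative ionization mode. Retention time values come from computationally picked adduct peaks, each inspected manually.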

SMILES	RP-LC retention time [s]
CN(C)c1ccc(N2C=C(C(=O)N3CCOCC3)S(=O)(=O)c3ccc(F)cc32)cc1	828
Cc1cccc(-c2ncccc2CNS(=O)(=O)c2ccccc2)c1	677
CC(=O)N1CCN(c2nc3c(s2)CC(C(=O)N2CCCCC2)CC3)CC1 (stereo not given)	548
COC(=O)c1ccc2nc(NC(=O)c3cc(Cl)ccc3Cl)sc2c1	965
CCc1ccc(OCc2nc(C)c(C(=O)Nc3nc(-c4ccc(OC)cc4)cs3)s2)cc1	1290
COC(=O)c1ccc(C2CC(=O)NC3=C2C(=O)CC(C)(C)C3)cc1 (stereo not given)	675
Cc1cccc(C2(O)C(=O)N(Cc3nc(-c4ccccc4)oc3C)c3ccccc32)c1 (stereo not given)	1120
COc1cc(C)c(C)cc1S(=O)(=O)Nc1cccc(-c2ccc(N3CCCC3)nn2)c1	607
O=C(CCCSc1ccc(NC(=O)c2ccc(F)cc2)nn1)Nc1cccnc1	586
CN1C(=O)C2CCCCN2c2ccc(C(=O)NCCCN3CCOCC3)cc21 (stereo not given)	579
CCc1cc(=O)n(CC(=O)NCc2ccc(F)c(Cl)c2)c(N2CCOCC2)n1	764
CCNC(=O)N1CCCC(c2cccc(C(=O)NCC3CCCCC3)c2)C1 (stereo not given)	891
CC1CN(c2nc(Nc3ccc(Cl)cc3)c3cnn(C)c3n2)CC(C)O1 (stereo not given)	1040
CCc1cc(=O)n(CC(=O)N2CCN(c3ccc(F)cc3)CC2)c(N2CCOCC2)n1	720
CCNc1nc(C)cc(N2CCN(S(=O)(=O)c3cc(Cl)ccc3Cl)CC2)n1	776
COC(=O)c1sccc1NC(=O)Cn1cc(-c2nc(-c3ccc(Cl)cc3)no2)ccc1=O	1100
Cc1ccccc1NC(=O)N1CCN(c2nc3ccccc3nc2C(F)(F)F)CC1	1070
CSc1ncccc1C(=O)NCc1ccc2c(c1)ncn2C(C)C	585
O=C(c1ccc(C(F)(F)F)cc1)N1CCN(c2nc(CN3CCOCC3)cs2)CC1	655
COc1ccc(S(=O)(=O)N2CCN(c3cc(C)nc(N4CCCC4)n3)CC2)cc1Cl	754
COC[C@@H]1OCCN(S(=O)(=O)c2cccc(OC)c2)[C@H]1c1ccccc1	927
Cn1c(=O)oc2cc(-c3noc(-c4ccc(C(C)(C)C)cc4)n3)ccc21	1310
COc1ccccc1-c1nc(C2CC(=O)N(c3ccc(F)c(Cl)c3)C2)no1 (stereo not given)	1020

SMILES	RP-LC retention time [s]
O=C(CCCn1c(=O)c2cccn2c2ccc(F)cc21)N1CCN(C(=O)c2ccco2)CC1	745
O=C(CCCN1C(=O)c2cccc3cccc(c23)C1=O)N1CCN(c2ccccc2)CC1	866
Cc1cccc(N2CCN(Cc3nc(-c4ccc(N5CCCCC5)nc4)no3)CC2)c1	965
O=C(NCCc1nc2cccnc2n1-c1ccccc1)c1ccccc1	708
CCn1c(N2CCCC(C(=O)NCc3ccc(F)cc3)C2)cc(=O)n(C)c1=O (stereo not given)	776
CC(C)CCNC(=O)C1CCN(S(C)(=O)=O)c2cc(Cl)ccc2O1 (stereo not given)	923
O=C(O)c1cc2cc(F)ccc2[nH]1	791
c1ccc(CCCN2CCN(CCOC(c3ccccc3)c3ccccc3)CC2)cc1	874
CC1=C(c2ccc(F)cc2)S(=O)(=O)N=C1N1CCCN(C(=O)c2ccsc2)CC1	802
COC(=O)c1ccccc1NC(=O)Cn1cccc(-c2nc(-c3ccc(OC)c(OC)c3)no2)c1=O	871
COc1ccc(-c2nc(C)cc(C)c2CNC(=O)C2CCCC2)cc1	638
COCCCNC(=O)CCc1cc2cc(OC)ccc2[nH]c1=O	611
O=C(NCc1ccco1)N1CCCn2nc(-c3cccs3)cc2C1	752
COc1ccccc1N1CCN(c2cc(SCC(=O)NCc3ccccc3Cl)ncn2)CC1	908
O=C1CCc2cc(NC(=O)c3cc(-c4ccccc4)nc4ccccc34)ccc2N1	818
CN(CC(=O)O)c1nc2c(Cl)cc(Cl)cc2s1	888
CCn1cnc(S(=O)(=O)N2CCC(C(=O)Nc3nc4ccc(OC)cc4s3)CC2)c1	748
CC1CCCN(CCNC(=O)C2CCc3nc(N4CCOCC4)ncc3C2)C1 (stereo not given)	557
Cc1ccc(S(=O)(=O)NC2CCS(=O)(=O)C2)cc1[N+](=O)[O-] (stereo not given)	678
FC(F)(F)c1nc2cc3c(cc2n1Cc1ccc(Br)cc1)OCCO3	1080
CC(=O)Nc1ccc(C(=O)N2CCN(c3cc(-c4cccs4)[nH]n3)CC2)cc1	641
Cc1ccc(NC(=O)N2CCCC2c2c(C)noc2C)cc1 (stereo not given)	728
O=C(Nc1nccs1)c1cn(Cc2ccc(F)cc2)cc2c(=O)n(-c3ccccc3)nc1-2	957

SMILES	RP-LC retention time [s]
CC(C)c1ccc(Nc2c(-c3ccccc3O)nc3ncccn23)cc1	800
O=C(c1sc2ncccc2c1-n1cccc1)N1CCSCC1	842
COc1ccc(OCC(=O)N2CCC(C(=O)NCc3csc(-c4cccs4)n3)CC2)cc1	771
CC(C)OC(=O)Nc1ccc2nc(-c3cscn3)[nH]c2c1	666
N#Cc1cccc(NC(=O)Cn2nc3n(c2=O)CCCCC3)c1	674
CCc1nnc([C@@H]2CC(F)(F)CN2C(=O)c2noc(C)c2COC)o1	752
CCN1CCN(CCNC(=O)c2ccc3c(c2)NC(=O)C2CCCCN32)CC1 (stereo not given)	574
COc1ccc(Cl)cc1NC(=O)COc1nc(C)nc2ccccc12	840
CCOc1ccc(CNC(=O)C2CCCN(c3cc(=O)n(C)c(=O)n3CC)C2)cc1 (stereo not given)	812
CC(=O)Nc1ccc(OCC(=O)NC2CCN(Cc3ccccc3)CC2)nc1	572
CCC(C)C(NC(=O)c1ccc(F)cc1)C(=O)Nc1nc2ccccc2[nH]1 (stereo not given)	746
CC(C)C(=O)Nc1ccc(-n2cnc(C(=O)N3CCN(Cc4ccccc4)CC3)c2)nc1	608
Cc1cc2c(=O)n(CC(=O)Nc3ccc(Br)cc3F)ccc2s1	869
CCn1ccc2c(cc(C(=O)Nc3ccc4c(c3)OCCO4)n2C)c1=O	721
CC(C)Cn1nc(CNC(=O)c2ccco2)c2ccccc21	852
Cc1ccc(NC(=O)NCCc2cn(CC(C)C)c3ncccc23)cc1Cl	941
Cn1cc(CN2CCCC(COc3ccccc3C(=O)N3CCCCC3)C2)c2ccccc21 (stereo not given)	753
Cc1ccccc1C(=O)NCc1ccc2c(c1)ncn2C	576
COc1ccc(C)cc1NC(=O)Cn1nc2cc(C)nc(-c3ccc(F)cc3)n2c1=O	912
Cc1oc(C(C)C)nc1C(=O)NC1CCCCC1	1020
COc1cccc(CN2CCC(Oc3ccccc3-c3nc(-c4cnccn4)no3)C2)n1 (stereo not given)	702
CCOC(=O)C1CCN(C(=O)c2nc3ccccn3c2-c2ccsc2)CC1	664
CS(=O)(=O)c1ccccc1NC(=O)C1CCCCN1S(=O)(=O)c1cccs1 (stereo not given)	837

SMILES	RP-LC retention time [s]
Cc1cc(C)c(NC(=O)C2CCCN(S(=O)(=O)c3cc(-c4noc(C)n4)cs3)C2)c(C)c1 (stereo not given)	1110
COc1ccc(OC)c(NC(=O)C2CC(=O)N(CCc3c[nH]c4ccc(F)cc34)C2)c1 (stereo not given)	794
CCOCCCNC(=O)c1ccc2c(c1)NC(=O)C1CCCCN21 (stereo not given)	686
O=C(COc1ccccc1Cl)Nc1ccc(-c2nc(-c3ccccc3)no2)cc1	1280
COc1ccc(NC(=O)Nc2nc(CCC(=O)O)cs2)cc1	647
CCc1ccc(-n2c(CN3CCN(C(=O)NCCCOC)CC3)nc3cccnc32)cc1	634
O=c1ccc(-c2ccc(F)cc2)nn1CCc1nc(-c2ccccc2Br)no1	1010
CCc1nc(NCc2ccncc2)ncc1C(=O)O	555
CCC(=O)N1CCc2c(sc3ncnc(N4CCCC4)c23)C1	641
COc1ccc(C2(C(=O)N3CCN(S(=O)(=O)c4c(C)nn(C)c4C)CC3)CC2)cc1	754
COc1cc(NC(=O)N2CCC(c3nc(C(=O)N(C)C)c(C)o3)CC2)cc(OC)c1	711
CC1CCC(NC(=O)c2nnc(-c3ccc(S(=O)(=O)N4CCC(C)CC4)cc3)o2)CC1 (stereo not given)	1210
COc1ccc2[nH]c(-c3ccccc3)c(CCNC(C)=O)c2c1	832
CCN1C(=O)c2cccnc2Sc2cc(C(=O)N3CCCCC3)ccc21	730
CCc1ccc(NC(=O)Cn2nc3cc(C)nc(N4CCCC4)n3c2=O)cc1	968
O=C(Nc1nc2ccc([N+](=O)[O-])cc2s1)c1ccc(Br)s1	1040
O=C(NCCCn1c(-c2ccncc2)nc2cccnc21)Nc1cccc(C(F)(F)F)c1	725
COC(=O)c1sc(-c2ccccc2)cc1NC(=O)c1ccc([N+](=O)[O-])s1	1370
CCOc1ccccc1NC(=O)N1C[C@@H](F)C[C@H]1C(=O)N1CCCCC1	772
COc1cc(NC(=O)CN2CCSc3ccccc32)cc(OC)c1OC	890
O=C(Cc1ccc2ccccc2c1)Nc1nnc(-c2ccno2)o1	558
